Like-named read-outs stand apart in the source and are kept apart here.
Tests used:
DRB1*0301 (DR3w17) [1] = target: T1, DRB1*0301 (DR3w17) (Homo sapiens, UniProt P01903+P01911, A100K/A102G/A103R/A169T/F55Y/I96L/K41T/L162R/M171V/P40S/Q125H/Q178H/Q39Y/R42S/S66N/T106N/T262R/W38E/Y61H); conditions: read-out: Binding Capacity (IC 50% nM) Other Alleles DR3
DRB1*0101 (DR1) = target: T2, DRB1*0101 (DR1) (Homo sapiens, UniProt P01903+P01911, A100R/D57E/F55L/F60I/F76Y/I96L/L162R/M171V/P40L/Q125E/R42F/V115G/Y59C); experiment: biochemical; format: binding; conditions: Binding Capacity (IC 50% nM) DR1,4,7 DRB1
T2 construct: Epstein-Barr virus (EBV) transformed homozygous cell lines were used as sources; endogenous in cells; host or cells: LG2 (EBV-transformed homozygous B cell line)

DRB1*1101 (DR5w11) = target: T3, DRB1*1101 (DR5w11) (Homo sapiens, UniProt P01903+P01911, A100R/A169T/A87E/I96F/K41T/L162R/M171V/P40S/Q125H/Q178H/Q39Y/Q99D/R42S/S66Y/T262R/V115G/W38E); experiment: biochemical; format: binding
T3 construct: Epstein-Barr virus (EBV) transformed homozygous cell lines were used as sources; endogenous in cells; host or cells: SWEIG (EBV-transformed homozygous B cell line)
T3 sequence (P01903 26-254, other chains not shown): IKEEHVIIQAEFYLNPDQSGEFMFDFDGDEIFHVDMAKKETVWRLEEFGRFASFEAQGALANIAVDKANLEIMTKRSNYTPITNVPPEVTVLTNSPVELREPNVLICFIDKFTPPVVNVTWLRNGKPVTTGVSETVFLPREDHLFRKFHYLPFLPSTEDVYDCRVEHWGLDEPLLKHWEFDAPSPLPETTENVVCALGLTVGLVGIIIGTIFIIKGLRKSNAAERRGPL

DRB1*0701 (DR7) = target: T4, DRB1*0701 (DR7) (Homo sapiens, UniProt P01903+P01911, A100R/A102G/A103Q/D57E/D86V/E43K/F76Y/K127E/L162R/M171V/P40G/Q125H/Q99D/R33Q/R42Y/R54Q/S133A/S66F/T210M/V115G/Y107V/Y59L/Y89S); experiment: biochemical; format: binding
T4 construct: Epstein-Barr virus (EBV) transformed homozygous cell lines were used as sources; endogenous in cells; host or cells: PITOUT (EBV-transformed homozygous B cell line)

DRB1*0301 (DR3w17) [2] = target: T1, DRB1*0301 (DR3w17); experiment: biochemical; conditions: Binding Capacity (IC50% nM) DR3
DRB1*1201 (DR5w12) = target: T5, DRB1*1201 (DR5w12) (Homo sapiens, UniProt P01903+P01911, A100R/A169T/D57E/D86V/F55L/H45Y/K41T/L162R/M171V/P40S/Q125H/Q178H/Q39Y/Q99D/R42G/S66L/T262R/V114A/V67L/W38E/Y59H/Y61H/Y89S); experiment: biochemical; format: binding
T5 construct: Epstein-Barr virus (EBV) transformed homozygous cell lines were used as sources; endogenous in cells; host or cells: Herluf (EBV-transformed homozygous B cell line)

DRB1*1302 (DR6w19) = target: T6, DRB1*1302 (DR6w19) (Homo sapiens, UniProt P01903+P01911, A100E/A169T/K41T/L162R/M171V/P40S/Q125H/Q178H/Q39Y/Q99D/R42S/S66N/T262R/V115G/W38E/Y61H); experiment: biochemical; format: binding
T6 construct: Epstein-Barr virus (EBV) transformed homozygous cell lines were used as sources; the source of Class II molecules the EBV transformed homozygous cell line H0301; endogenous in cells; host or cells: H0301 (EBV-transformed homozygous B cell line)

DRB1*0901 (DR9) = target: T7, DRB1*0901 (DR9) (Homo sapiens, UniProt P01903+P01911, A100R/A103E/D57H/D86V/F55Y/F60I/F76Y/I96F/K127E/L162R/M171V/P40D/Q125H/Q99R/R33Q/R42F/S133A/S66N/T210M/V115G/W38K/Y107V/Y59G/Y89S); experiment: biochemical; format: binding
T7 construct: Epstein-Barr virus (EBV) transformed homozygous cell lines were used as sources; endogenous in cells

DRB1*1501 (DR2w2b) = target: T8, DRB1*1501 (DR2w2b) (Homo sapiens, UniProt P01903+P01911); experiment: biochemical; format: binding
T8 construct: expressed in transfected cells; host or cells: transfected fibroblasts L466.1

DRB1*0401 (DR4w4) = target: T9, DRB1*0401 (DR4w4) (Homo sapiens, UniProt P01903+P01911, A100K/A169T/F76Y/I96L/K127E/L162R/M171V/N62H/P40V/Q125Y/R42H/S133A/S149N/S66Y/V115G/V209L/W38E); experiment: biochemical; format: binding
T9 construct: Epstein-Barr virus (EBV) transformed homozygous cell lines were used as sources; endogenous in cells; host or cells: PREISS (EBV-transformed homozygous B cell line)

DRB1*0802 (DR8w2) = target: T10, DRB1*0802 (DR8w2) (Homo sapiens, UniProt P01903+P01911, A100R/A103L/A169T/F76Y/H45Y/I96F/K41T/L162R/M171V/P40S/Q125H/Q178H/Q39Y/Q99D/R218S/R42G/S66Y/V115G/W38E); experiment: biochemical; format: binding
T10 construct: Epstein-Barr virus (EBV) transformed homozygous cell lines were used as sources; endogenous in cells; host or cells: OLL (EBV-transformed homozygous B cell line)

DRB5*0101 (DR2w2a) = target: T11, DRB5*0101 (DR2w2a) (Homo sapiens, UniProt P01903+Q30154); experiment: biochemical; format: binding
T11 construct: Epstein-Barr virus (EBV) transformed homozygous cell lines were used as sources; endogenous in cells; host or cells: GM3107 (EBV-transformed homozygous B cell line)

DRB1*0405 (DR4w15) = target: T12, DRB1*0405 (DR4w15) (Homo sapiens, UniProt P01903+P01911, A100R/A169T/D86S/F76Y/I96L/K127E/L162R/M171V/N62H/P40V/Q125Y/R42H/S133A/S149N/S66Y/V115G/V209L/W38E); experiment: biochemical; format: binding
T12 construct: Epstein-Barr virus (EBV) transformed homozygous cell lines were used as sources; endogenous in cells; host or cells: KT3 (EBV-transformed homozygous B cell line)

[3] = Binding Capacity (IC50% nM) DR5w11
[4] = read-out: Binding Capacity (IC 50% nM) Other Alleles DR5w11
[5] = read-out: Binding Capacity (IC 50% nM) Other Alleles DR5w12
[6] = read-out: Binding Capacity (IC 50% nM) Other Alleles DR9
[7] = Binding Capacity (IC 50% nM) Other Alleles DR2w2b
[8] = Binding Capacity (IC 50% nM) DR1,4,7 DR4w4
[9] = read-out: Binding Capacity (IC 50% nM) Other Alleles DR8w2
[10] = Binding Capacity (IC 50% nM) DR1,4,7 DR7
[11] = read-out: Binding Capacity (IC 50% nM) Other Alleles DR6w19
[12] = Binding Capacity (IC 50% nM) Other Alleles DR2w2a
[13] = Binding Capacity (IC 50% nM) Other Alleles DR4w15

SMILES | IC50 (DRB1*0301 (DR3w17) [1]) | IC50 (DRB1*0101 (DR1)) | IC50 (DRB1*1101 (DR5w11); [3]) | IC50 (DRB1*1101 (DR5w11); [4]) | IC50 (DRB1*0301 (DR3w17) [2]) | IC50 (DRB1*1201 (DR5w12); [5]) | IC50 (DRB1*0901 (DR9); [6]) | IC50 (DRB1*1501 (DR2w2b); [7]) | IC50 (DRB1*0401 (DR4w4); [8]) | IC50 (DRB1*0802 (DR8w2); [9]) | IC50 (DRB1*0701 (DR7); [10]) | IC50 (DRB1*1302 (DR6w19); [11]) | IC50 (DRB5*0101 (DR2w2a); [12]) | IC50 (DRB1*0405 (DR4w15); [13]) | further results
CC[C@H](C)[C@H](N)C(=O)N[C@@H](CCCCN)C(=O)N[C@@H](CC(C)C)C(=O)N1CCC[C@H]1C(=O)N[C@H](C(=O)N[C@H](C(=O)N[C@@H](CC(C)C)C(=O)N[C@@H](C)C(=O)N[C@@H](Cc1ccccc1)C(=O)N[C@@H](C)C(=O)N[C@H](C(=O)N[C@@H](CS)C(=O)N[C@@H](Cc1ccccc1)C(=O)N[C@@H](CC(C)C)C(=O)N[C@H](C(=O)N1CCC[C@H]1C(=O)O)[C@@H](C)CC)[C@@H](C)O)[C@@H](C)CC)[C@@H](C)CC [Peptide 1136.12] | > 1000 nM | < 1000 nM | > 10000 nM | > 1000 nM | > 10000 nM | > 1000 nM | > 1000 nM | < 1000 nM | < 1000 nM | > 1000 nM |  |  |  |  | IC50 (DRB1*0701 (DR7); read-out: Binding Capacity (IC 50% nM) DR1,4,7 DR7): > 1000 nM; IC50 (DRB1*1201 (DR5w12); Binding Capacity (IC50% nM) DR5w12): > 10000 nM; IC50 (DRB1*1302 (DR6w19); Binding Capacity (IC 50% nM) Other Alleles DR6w19): < 1000 nM; IC50 (DRB5*0101 (DR2w2a); read-out: Binding Capacity (IC 50% nM) Other Alleles DR2w2a): > 1000 nM; IC50 (DRB1*0405 (DR4w15); read-out: Binding Capacity (IC 50% nM) Other Alleles DR4w15): > 1000 nM
CC[C@H](C)[C@H](NC(=O)[C@H](CC(C)C)NC(=O)[C@H](Cc1ccccc1)NC(=O)[C@H](CS)NC(=O)[C@@H](NC(=O)[C@H](C)NC(=O)[C@@H](N)Cc1ccccc1)[C@@H](C)O)C(=O)N1CCC[C@H]1C(=O)N[C@@H](CC(C)C)C(=O)N[C@H](C(=O)N[C@@H](CO)C(=O)N[C@@H](CCC(N)=O)C(=O)N[C@@H](Cc1ccccc1)C(=O)N[C@@H](Cc1ccccc1)C(=O)N[C@@H](CC(C)C)C(=O)N1CCC[C@H]1C(=O)O)[C@@H](C)O [Peptide 1136.14] | > 1000 nM | < 1000 nM | > 10000 nM | > 1000 nM | > 10000 nM | > 1000 nM | > 1000 nM | < 1000 nM |  | > 1000 nM | < 1000 nM | > 1000 nM | < 1000 nM | < 1000 nM | IC50 (DRB1*0701 (DR7); Binding Capacity (IC50% nM) DR7): 100 nM; IC50 (DRB1*0401 (DR4w4); read-out: Binding Capacity (IC 50% nM) DR1,4,7 DR4w4): > 1000 nM; IC50 (DRB1*0802 (DR8w2); Binding Capacity (IC50% nM) DR8w2): > 10000 nM
CC(C)C[C@H](NC(=O)[C@H](Cc1c[nH]c2ccccc12)NC(=O)[C@@H](NC(=O)[C@H](Cc1ccccc1)NC(=O)[C@@H](NC(=O)[C@@H]1CCCN1C(=O)[C@H](CC(C)C)NC(=O)[C@H](C)NC(=O)[C@@H]1CCCN1C(=O)[C@H](CC(C)C)NC(=O)[C@H](Cc1ccccc1)NC(=O)[C@H](Cc1ccccc1)NC(=O)[C@H](CCC(N)=O)NC(=O)[C@H](CO)NC(=O)[C@@H](NC(=O)[C@@H](N)CC(C)C)[C@@H](C)O)C(C)C)[C@@H](C)O)C(=O)O [Peptide 1136.16] | > 1000 nM | < 1000 nM |  | > 1000 nM | > 10000 nM | > 1000 nM |  |  | < 1000 nM |  | < 1000 nM | > 1000 nM | < 1000 nM | < 1000 nM | IC50 (DRB1*0901 (DR9); Binding Capacity (IC 50% nM) Other Alleles DR9): < 1000 nM; IC50 (DRB1*1501 (DR2w2b); read-out: Binding Capacity (IC 50% nM) Other Alleles DR2w2b): > 1000 nM; IC50 (DRB1*0802 (DR8w2); Binding Capacity (IC 50% nM) Other Alleles DR8w2): < 1000 nM

From US6413517B1, “Identification of broadly reactive DR restricted epitopes” (Epimmune, Inc., priority 1997, dated 2002)
